This is an account of results in paper PMC9147192, “Small Molecule Arranged Thermal Proximity Coaggregation (smarTPCA)—A Novel Approach to Characterize Protein–Protein Interactions in Living Cells by Similar Isothermal Dose–Responses” (International Journal of Molecular Sciences, 2022).

The target in the experiment is T1, GANAB (Homo sapiens, UniProt Q14697).
T1 construct: endogenous in cells; host or cells: HL-60 (ATCC CCL-240)
T1 sequence (Q14697 29-944): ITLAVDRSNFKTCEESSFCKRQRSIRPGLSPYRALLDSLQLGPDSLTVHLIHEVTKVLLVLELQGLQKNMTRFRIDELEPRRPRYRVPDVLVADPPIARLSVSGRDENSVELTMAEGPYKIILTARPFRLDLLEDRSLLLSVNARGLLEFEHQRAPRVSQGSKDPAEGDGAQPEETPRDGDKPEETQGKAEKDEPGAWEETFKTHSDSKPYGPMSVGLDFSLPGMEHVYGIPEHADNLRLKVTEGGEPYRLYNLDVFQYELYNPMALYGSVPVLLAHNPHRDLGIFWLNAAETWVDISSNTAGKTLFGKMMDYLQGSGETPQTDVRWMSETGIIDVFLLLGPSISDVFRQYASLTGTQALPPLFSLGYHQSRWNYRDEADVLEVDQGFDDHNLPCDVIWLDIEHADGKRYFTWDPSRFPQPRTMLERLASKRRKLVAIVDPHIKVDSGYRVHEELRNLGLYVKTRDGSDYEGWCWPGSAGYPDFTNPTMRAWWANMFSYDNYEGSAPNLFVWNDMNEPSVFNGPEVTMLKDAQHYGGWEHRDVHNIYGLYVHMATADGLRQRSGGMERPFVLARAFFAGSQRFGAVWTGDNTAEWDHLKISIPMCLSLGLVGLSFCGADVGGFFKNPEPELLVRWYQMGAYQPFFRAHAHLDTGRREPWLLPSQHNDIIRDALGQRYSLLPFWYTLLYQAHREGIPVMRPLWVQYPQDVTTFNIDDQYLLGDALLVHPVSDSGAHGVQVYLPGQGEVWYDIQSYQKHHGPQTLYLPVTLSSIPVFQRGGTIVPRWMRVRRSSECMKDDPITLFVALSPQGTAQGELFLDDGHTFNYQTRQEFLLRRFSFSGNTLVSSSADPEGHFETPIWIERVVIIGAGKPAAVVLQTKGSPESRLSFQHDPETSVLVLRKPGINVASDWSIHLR
The experiment is described as follows: TPP-CCR in living HL-60 cells. It is filed as cell-based. From the text: Therefore, we performed TPP with compound concentration range (TPP-CCR) experiments according to published procedures. In brief, after preparing tryptic peptides from the non-denatured protein fractions (used for immunoblotting in the previous sections) applying the SP3 method, the peptides were labeled using TMT10plex, coding for inhibitor concentration, and the samples belonging to a TMT set were combined, offline high-pH fractionated, and analyzed by MS.
HL-60 cells were expanded as described above for CETSA and TPP-TR to 1.25 million cells per milliliter. […] A number of 2.5 million cells in 2 mL of medium were added to each tube and incubated (1 h, 37 °C). After centrifugation (300 rcf, 3 min, r.t.) and removing all of the supernating culture medium, the cells were washed once with 2 mL and once with 0.5 mL PBS (r.t.) by gently resuspending the cells, followed by centrifugation (300 rcf, 3 min, r.t.) and the complete removal of the supernatants.
After transferring the cells from the 2 mL Eppendorf tubes into correspondingly labeled PCR tubes (tube strips) using 100 µL of ice-cold PBS supplemented with protease inhibitors for resuspending the cells, the samples were further processed as described above for CETSA and TPP-TR, however, by applying a single treatment temperature of 51 °C.
For each sample set comprising ten compound concentration range samples, a same volume of the cell extracts containing the fraction of soluble, non-denatured proteins, corresponding to an average of 5 µg total protein, was used for further analysis. The calculated volume was respectively transferred into PCR tubes of a tube strip and supplemented with SDS sample buffer without DTT and bromophenol blue (final concentrations: 7.5% glycerol, 3% SDS, 37.5 mM Tris/HCl pH 7.0) and ddH2O to a final volume of 10 µL, respectively. Reduction and alkylation were performed by addition of 2.5 µL 100 mM dithiothreitol (DTT; incubation: 20 min, 56 °C, 1000 rpm in an Eppendorf ThermoMixer C, covering the tubes with aluminum foil to minimize condensation in the lids) and 3.33 µL 300 mM iodoacetamide (IAA; incubation: 15 min, r.t., in the dark without shaking), as well as 2.5 µL 100 mM DTT (incubation: 15 min, r.t., without shaking; quenching of excess of IAA). […] The beads were collected and washed (3× 200 µL 80% ethanol p.a. in HPLC-MS grade water, 1 × 200 µL acetonitrile (ACN; HPLC gradient grade)) using a device for handling of magnetic particles [patent US20100200405A1]. The ACN of the last washing step was completely removed by aspiration without letting the beads dry out.
Tryptic digest was performed on-bead by resuspending (use of an ultrasound bath may be required) the beads in 20 µL 50 mM TEAB in HPLC-MS grade water containing 0.1 µg Trypsin/Lys-C mix and 16.5 h incubation at 37 °C and 1000 rpm (Eppendorf ThermoMixer C, covering the tubes with aluminum foil to minimize condensation in the lids). Tryptic fragmentation of proteins was optimized by addition of another 0.1 µg of Trypsin/Lys-C mix in 2 µL 50 mM TEAB and 4 h incubation at 37 °C and 1000 rpm. After centrifugation for about 1 min in a table top centrifuge and magnetic concentration and retention of the beads at the inner tube wall, the supernatants containing the peptides were transferred into new PCR tubes (of tube strips) and were stored at −80 °C. The beads were discarded.
Half of the peptide samples (11 µL containing about 2.5 µg peptides) were transferred into new PCR tubes (of tube strips) and allowed to equilibrate to r.t. TMT labeling reagents were reconstituted as described for the TPP-TR samples, and 1 µL each was added to the reconstituted peptides according to the following scheme and homogenized immediately by aspiration and dispensing:
Peptide separation was performed as described above for the analysis of TPP-TR samples. […]

Each structure is given as a SMILES string.

One may read the Hill slope as the slope factor of the fitted curve. For the setting “TPP-CCR, living cells, GANAB”, `Cc1cnc(Nc2ccc(F)cc2Cl)nc1-c1c[nH]c(C(=O)N[C@H](CO)c2cccc(Cl)c2)c1` [ERK 11e] displayed a Hill slope of 1.81. In addition, where the note is “living HL-60 cells, […] °C, TMT-MS”, the “Hill slope (GANAB)” value was determined as 1.81. Besides, the EC50 (living HL-60 cells, […] °C, TMT-MS, read-out: pEC50 (GANAB) (converted)) was 5.25 µM.
